Source: paper PMC3583800, “Identification of active Plasmodium falciparum calpain to establish screening system for Pf-calpain-based drug development” (Malaria Journal, 2013)

Target: T1, rPfcal-IIa (Pf-calpain catalytic subdomain IIa) (Plasmodium falciparum, UniProt E5LAD0)
T1 construct: also baculovirus/High Five for the mutation study; monomeric proposed
T1 sequence (E5LAD0 822-1216): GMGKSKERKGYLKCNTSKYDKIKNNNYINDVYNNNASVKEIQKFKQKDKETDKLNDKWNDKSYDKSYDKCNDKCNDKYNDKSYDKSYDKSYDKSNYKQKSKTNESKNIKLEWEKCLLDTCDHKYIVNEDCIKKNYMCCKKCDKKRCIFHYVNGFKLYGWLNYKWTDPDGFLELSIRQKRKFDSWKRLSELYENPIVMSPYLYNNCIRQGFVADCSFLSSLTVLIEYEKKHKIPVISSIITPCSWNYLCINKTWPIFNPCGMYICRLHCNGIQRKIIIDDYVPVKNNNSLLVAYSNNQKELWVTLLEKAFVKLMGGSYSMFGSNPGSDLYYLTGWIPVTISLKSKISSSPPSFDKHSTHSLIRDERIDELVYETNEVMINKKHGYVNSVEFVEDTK
Assay: fluorogenic Suc-LLVY-AMC assay and gelatin zymography
Assay type: biochemical
Conditions: 100 μM inhibitor pre-incubated 1 h at 37°C; 20 μM Suc-LLVY-AMC, 100 mM Tris-HCl pH 7.5, 1 mM DTT

CC(C)C[C@H](NC(=O)[C@@H]1O[C@H]1C(=O)O)C(=O)NCCCCNC(=N)N [E-64]
inhibition at 100 μM: enzymatic activity of rPfcal-IIa protein was significantly inhibited by ALLN and E-64
